Test system: hResistin
Test: Ability to inhibit TNF-α secretion by hResistin (THP-1, ELISA)
Format: cell-based
Details: THP-1 human monocyte cell line; for IC50: human recombinant Resistin, ELISA OD450 nm, 1 hour treatment
Method: Using THP-1 (human monocyte) cell line and ELISA system, the abilities to inhibit TNF-α secretion by hResistin (IC50) were evaluated for the compounds prepared in the above examples. The compounds target hResistin, and the abilities of the compounds to inhibit TNF-α secretion by human recombinant Resistin in human monocyte (THP-1) were evaluated. The abilities to inhibit TNF-α secretion were assessed by ELISA quantifying the amount of antibody with the enzyme as a marker using an antigen-antibody reaction.
Specifically, the cultured cells were spun down at 1,500 rpm for 2 minutes, the supernatant was removed and then the cells were re-suspended in 10 mL of complete RPMI-1640 medium. After counting the number of cells using Luna™ Automated Cell Counter, cells were plated into 96-well assay plates at 50 μL per well. The cells cultured for 24 hours were treated with the test substances in accordance with the concentration for 1 hour, and then the supernatant was collected and subjected to ELISA assay. In the ELISA assay, the absorbance at 450 nm (OD450 nm) was measured using Flexstation 3. The ability of each test substance to inhibit TNF-α secretion (IC50) and its inhibition at a concentration of 5 uM are shown in Table 1 below.

Structure (SMILES) | IC50 [nM] | inhibition at 5 µM (TNF-α secretion by hResistin, concentration 5 uM) [%]
CCN1CCN(C(c2ccc(C(F)(F)F)cc2)c2c(-c3ccccc3)[nH]c3ccccc23)CC1 (stereo not drawn) [Example 19, 3-((4-ethylpiperazin-1-yl)(4-(trifluoromethyl)phenyl)methyl)-2-phenyl-1H-indole] | 1700 | –
CN1CCN(C(c2cccc(F)c2)c2c(-c3ccc(Cl)cc3)[nH]c3ccccc23)CC1 (stereo not drawn) [Example 14, 2-(4-chlorophenyl)-3-((3-fluorophenyl)(4-methylpiperazin-1-yl)methyl)-1H-indole] | 3200 | –
CN1CCN(C(c2ccccc2)c2c(-c3ccccc3)[nH]c3ccccc23)CC1 (stereo not drawn) [Example 6, 3-((4-methylpiperazin-1-yl)(phenyl)methyl)-2-phenyl-1H-indole] | 2800 | –
CN1CCN(C(c2ccc(C(F)(F)F)cc2)c2c(-c3ccccc3)[nH]c3ccccc23)CC1 (stereo not drawn) [Example 8, 3-((4-methylpiperazin-1-yl)(4-(trifluoromethyl)phenyl)methyl)-2-phenyl-1H-indole] | 1000 | –
CCN1CCN(C(c2ccc(F)cc2)c2c(-c3ccccc3)[nH]c3ccccc23)CC1 (stereo not drawn) [Example 18, 3-((4-ethylpiperazin-1-yl)(4-fluorophenyl)methyl)-2-phenyl-1H-indole] | 1700 | –
CN1CCN(C(c2ccc(Cl)cc2)c2c(-c3ccccc3)[nH]c3ccccc23)CC1 (stereo not drawn) [Example 2, 3-((4-chlorophenyl)(4-methylpiperazin-1-yl)methyl)-2-phenyl-1H-indole] | 4400 | 70.3
Fc1ccc(C(c2c(-c3ccccc3)[nH]c3ccccc23)N2CCOCC2)cc1 (stereo not drawn) [Example 9, 4-((4-fluorophenyl)(2-phenyl-1H-indol-3-yl)methyl)morpholine] | 3500 | –
CN1CCN(C(c2ccc(F)cc2)c2c(-c3ccccc3)[nH]c3ccccc23)CC1 (stereo not drawn) [Example 10, 3-((4-fluorophenyl)(4-methylpiperazin-1-yl)methyl)-2-phenyl-1H-indole] | 1700 | –
CN1CCN(C(c2cccc(F)c2)c2c(-c3ccccc3)[nH]c3ccccc23)CC1 (stereo not drawn) [Example 7, 3-((3-fluorophenyl)(4-methylpiperazin-1-yl)methyl)-2-phenyl-1H-indole] | 2000 | –
CN1CCN(C(c2ccc(Cl)cc2)c2c(-c3ccc(Cl)cc3)[nH]c3ccccc23)CC1 (stereo not drawn) [Example 12, 2-(4-chlorophenyl)-3-((4-chlorophenyl)(4-methylpiperazin-1-yl)methyl)-1H-indole] | 400 | –
CN1CCN(C(c2ccc(F)cc2)c2c(-c3ccc(Cl)cc3)[nH]c3ccccc23)CC1 (stereo not drawn) [Example 15, 2-(4-chlorophenyl)-3-((4-fluorophenyl)(4-methylpiperazin-1-yl)methyl)-1H-indole] | 1500 | –

Reference: patent US10597362B2, “3-aminoalkylated indole derivative, method for the preparation thereof, and pharmaceutical composition comprising the same” (Seoul National University Hospital, priority 2016, dated 2020)
